{
  "source": "patent US20080300298A1",
  "about": "“Honokiol Derivates For the Treatment of Proliferative Disorders” (priority 2005, published 2008)",
  "key": {"RPM18226 cells": {"test_system": "RPM18226 cells", "test": "TUNEL assay", "type": "cell-based, human", "conditions": "RPM18226, 10 ug/ml, 48 h", "method": "(§1) Assessment of HNK-induced cytotoxicity against patient MM cells: […] A CD38^high fraction enriched for MM cells was determined in side and forward scatter panel in each case. The expression of CD138 on gated cells was also evaluated. After HNK-treatment for 48 h, cells were harvested and percentage of CD38^high cells with or without HNK-treatment was evaluated. Cell cycle analysis: MM cells cultured with HNK were harvested, fixed with 70% ethanol, and pretreated with 250 μg/mL of RNAse (Sigma, St Louis, Mo.). Cells were stained with propidium iodide (PI; 50 μg/mL; Sigma, St Louis, Mo.), and cell cycle profile was determined by using the program M software on an EPICS XL flow cytometer (Beckman Coulter, Hialeah, Fla.). […] Fluorescence intensity of TUNEL and APO 2.7 staining was determined using on EPICS XL flow cytometer. Cytotoxicity was determined by trypan blue exclusion assay. […] Cell growth and induction of apoptosis were determined both by colorimetric assay and now cytometric detection of APO2.7 after 48 h treatment. […] Proliferation of MM cells was then assessed by [^3H]-thymidine uptake. […] DNA synthesis was measured by [^3H]-thymidine uptake. […] Angiogenesis assay: The anti-angiogenic effect of HNK was determined using an In Vitro Angiogenesis Assay Kit (Chemicon, Temecula, Calif.). […] After 6 h, tube formation by endothelial cells was evaluated. […]"}, "MM.1S cells": {"test_system": "MM.1S cells", "test": "TUNEL assay", "type": "cell-based, human", "conditions": "10 ug/ml, 48 h", "method": "as §1"}, "[1]": {"test_system": "glioblastoma multiforme cell lines, U343 and T98G", "test": "MTT proliferation assay", "type": "cell-based", "conditions": "10-70 μM, 24 hours", "method": "(§2) Cell lines: All cell lines were obtained from American Type Culture Collection. The breast cancer cell lines used: MCF-7 and BT-474 cells were grown in DMEM medium containing 10% FCS; MDA-MB-231, SK-BR-3, MDA-MB-436 and T47-D cells were grown in RPMI medium containing 10% FCS. The glioblastoma multiforme cell lines (U343 and T98G) were maintained in DMEM modified medium containing 10% FCS.\n(§3) 3-(4,5-dimethylthiazol-2-yl)-2,5-diphenyltetrazolium bromide (MTT) proliferation assays: 3×10^3 cells/well were plated in 96-well plates, cultured in the appropriate culture media containing 10% FCS, and treated with either control vehicle or various concentrations of HNK, alone or with a secondary drug, as indicated. All secondary drugs were freshly diluted in growth media and immediately added to cells along with the HNK. After 24 hours of incubation at 37° C., 5% CO2, the cells were cultured for four hours with 10% MTT reagent (5 mg/ml; Sigma-Aldrich, St. Louis, Mo.). The medium was aspirated, and the cells were dissolved by dimethyl sulfoxide (DMSO). Absorbance of the formazan product was measured by an enzyme-linked immunosorbent assay reader (Macintosh).\n(§4) HNK inhibits growth of breast cancer cells. Breast cancer cells were treated with different concentrations of HNK for 24 hours, and MTT assays were conducted to assess viability. The selected cell lines have different phenotypes and different expression patterns of the estrogen receptor (ER), Her2 and p53, and thus represent various subclasses of breast cancer. […] Similar analyses were also conducted for two glioblastoma multiforme cell lines, U343 and T98G. Over the same dose-range (10-70 μM), both cell lines were resistant to HNK (FIGS. 34 A, B)."}, "BT-474 cells": {"test_system": "BT-474 cells", "test": "MTT proliferation assay", "type": "cell-based", "conditions": "Homo sapiens, BT-474, 24 h, read-out: concentration that reduced viability by 50% (LC50)", "method": "as §2, §3, §4"}, "SKBR-3 cell": {"test_system": "SKBR-3 cell", "test": "MTT proliferation assay", "type": "cell-based", "conditions": "Homo sapiens, SK-BR-3, 24 h, read-out: concentration that reduced viability by 50% (LC50)", "method": "as §2, §3, §4"}, "[2]": {"test_system": "human promyelocytic leukemic cell line HL-60", "conditions": "cited from earlier work"}},
  "data": [
    {"smiles": "C=CCc1ccc(O)c(-c2ccc(O)c(CC=C)c2)c1", "note": "[HNK, Honokiol]", "values": [
      {"measurement": "TUNEL positive cells", "setting": "RPM18226 cells", "value": 41.5, "unit": "%"},
      {"measurement": "TUNEL positive cells", "setting": "MM.1S cells", "value": 38.2, "unit": "%"},
      {"measurement": "viability of glioblastoma multiforme cell lines", "setting": "[1]", "value": "resistant"},
      {"measurement": "CC50", "setting": "BT-474 cells", "value": 50, "unit": "µM"},
      {"measurement": "CC50", "setting": "SKBR-3 cell", "value": 29, "unit": "µM"},
      {"measurement": "IC50 value", "setting": "[2]", "value": "less than 100 ng/ml"}
    ]}
  ]
}
